Reference: patent publication US20260053902A1, “COMPOSITIONS AND METHODS FOR REDUCING THE RATE OF TYPE 1 DIABETES” (Wisconsin Alumni Research Foundation, priority 2023, published 2026)
Ends that are not written are not given here. * marks the point of attachment. Cam = NC(=O)C*

How the values were obtained:
[1] = tested on: NOD mouse; assay: Rate of type 1 diabetes and final blood glucose in treated female NOD/ShiLtJ mice; format: in vivo; conditions: for rate of diabetes: EGCG IP in saline from age 3-5 days
Protocol: Mouse care: NOD/ShiLtJ mice were from The Jackson Laboratory (Bar Harbor, ME, USA). Mice were housed under standard conditions (20-24° C., humidity 30-70%, lighting regimen 12 h light/12 h dark) in the University of Wisconsin Biomedical Research Model Service that is a specific pathogen free level 1 facility. […] Mice had access to acidified water or water containing a chemical and/or green tea ad libitum. All procedures were approved by the Research Animal Resources and Compliance veterinary care authority of the University of Wisconsin, Madison.
Mouse treatments: Mice were given chemicals by intraperitoneal injection and/or by gavage and/or in drinking water. Water-soluble chemicals were administered in a solution of sodium chloride adjusted to have a final osmolality of 0.5-0.9%. Lipid soluble chemicals were dissolved in olive oil, peanut oil, corn oil, Mazola® oil or canola oil.
Starting at age 2 to 5 days mice were given injections on every third or fourth day for 2 to 4 weeks (usually 2 to 2.5 weeks) for the first 4 or 6 injections, and thereafter twice per week on Mondays and Thursdays until up to age 100 days. In some instances, pregnant and nursing mice were given chemicals in drinking water starting at about the middle or late pregnancy continuing during nursing and also continuing for various lengths of time to the offspring with or without additional intraperitoneal injections of chemicals. In other instances, chemicals were delivered by intraperitoneal injection into pregnant mice and continued after delivery into the mouse pups. Chemicals, for example EGCG, were also delivered in drinking water starting before birth to the pregnant mouse mother and/or continuing and/or starting ad libitum to the mice after birth usually until at least 100 days of age or throughout life.
Chemicals given in distilled drinking water were green tea (as a source of EGCG and other catechins) (Lipton® 100% Natural Green Tea). […] The tea water was given alone and also in combination with acetaminophen 2 g/l in the same water.
In most cases nondiabetic mice were euthanized at 40-41 weeks of age. Statistical significances of the frequencies of diabetes in the mice receiving test treatments were compared to the rates of diabetes in mice receiving control treatments and were calculated with the Chi square test and with the Chi square test with Yate's correction.
In most of the studies, control solutions and the other treatments were administered to the mice until they were 100 days old. Mice without diabetes were euthanized at 40-41 weeks of age. Diabetic mice were euthanized when their blood glucose levels reached a level that met the criteria for diabetes.
Administration of water-soluble chemicals serving as controls to NOD mice: Control solutions were the vehicles in which chemicals were dissolved. Control solutions were usually administered to mouse litters from the same shipments as the litters receiving test chemicals and/or litters from the same parents as the litters receiving test chemicals and were administered during the same month and year as treatments to the litters receiving test treatments. Statistical probabilities between the rates of diabetes in the litters receiving test treatments were compared to litters simultaneously receiving control treatments.

[2] = tested on: mice; conditions: mouse, in vivo
Text: Intraperitoneal injections of water-soluble chemicals were given in normal saline (0.9% sodium chloride).

[3] = tested on: NOD mouse; conditions: Fu et al.: 1 mM EGCG in drinking water, given after age 5 weeks; 12 mice; 32 weeks of age; cited from earlier work
[4] = 100 μmol/kg IP in saline, age 34 weeks
[5] = 20 μmol/kg IP in saline until age 58-61 days, age 34 weeks
[6] = 50 μmol/kg IP in saline from age 3-5 days until 59-63 or 93-95 days, age 41-44 weeks
[7] = 1 mM in drinking water, oral, from 1-4 days after birth
[8] = 60 day treatment (stopped at age 59-60 days), 50 μmol/kg IP in saline, age 40 weeks
[9] = IP 50 μmol/kg in saline til wean (21 days), then gavage 100 μmol/kg until 97-98 days
[10] = started post wean (21 days) until 99 days, 50 μmol/kg IP in ¾ saline
[11] = hydroxytyrosol alone, 325 μmol/kg first 5 weeks, 650 thereafter, IP in ¾ saline
[12] = menaquinone-4 200 μmol/kg IP in olive oil, age 40 weeks
[13] = menaquinone-4 200 μmol/kg IP in peanut oil
[14] = pure oleocanthal (oil) 50 μmol/kg, no carrier, IP til wean, then gavage
[15] = 2000-3500 μmol/kg IP in olive oil, age 40 weeks
[16] = 2000-3500 μmol/kg IP in peanut oil
[17] = started post wean, 3100-4000 μmol/kg IP in olive oil
[18] = quercetin 200 μmol/kg IP in olive oil, age 40 weeks
[19] = quercetin 200 μmol/kg IP in peanut oil
[20] = 1500 μmol/kg in olive oil, IP til wean (21 days), then gavage until 98 days, age 40 weeks
[21] = 2000 μmol/kg IP in olive oil, age 40 weeks
[22] = 200 μmol/kg in ¾ saline, IP til wean (21 days), then gavage until 55-62 days, age 35 weeks
[23] = 200 μmol/kg IP in saline, age 40 weeks
[24] = 20 ug once per week for first 3 weeks, then 40 μg once per week until 100-110 days, IP in 5% DMSO/95% saline, age 40 weeks
[25] = 40 μg twice/week for two weeks then once per week until 14 weeks old, IP in 5% DMSO/95% saline
[26] = 20 ug, then 40 μg after 3 weeks, IP in 5% DMSO/95% saline

O=C(O)/C=C/c1ccc(O)c(O)c1 [Caffeic Acid, reference compound]
Diabetes (%) [1, 4]: 65% | Final Blood Glucose (mean ± SE) diabetic [1, 4]: 611 ± 32 mg glucose/dl | Final Blood Glucose (mean ± SE) non-diabetic [1, 4]: 178 ± 15 mg glucose/dl

COC1=C(OC)C(=O)C(C)=CC1=O [CoQ0, 2,3-dimethoxy-5-methyl-1,4-benzoquinone, reference compound]
Diabetes (%) [1, 5]: 83% | Final Blood Glucose (mean ± SE) diabetic [1, 5]: 649 ± 53 mg glucose/dl | Final Blood Glucose (mean ± SE) non-diabetic [1, 5]: 183 ± 28 mg glucose/dl | toxicity [2]: toxicity to the mice

O=C(O[C@@H]1Cc2c(O)cc(O)cc2O[C@@H]1c1cc(O)c(O)c(O)c1)c1cc(O)c(O)c(O)c1 [EGCG, (2R,3R)-5,7-Dihydroxy-2-(3,4,5-trihydroxyphenyl)-3,4-dihydro-2H-1-benzopyran-3-yl 3,4,5-trihydroxybenzoate]
Diabetes (%) [1, 6]: 35% | Final Blood Glucose (mean ± SE) diabetic [1, 6]: 685 ± 34 mg glucose/dl | Final Blood Glucose (mean ± SE) non-diabetic [1, 6]: 159 ± 5 mg glucose/dl | Diabetes (%) [1, 7]: 40% | Final Blood Glucose (mean ± SE) diabetic [1, 7]: 708 ± 24 mg glucose/dl | Final Blood Glucose (mean ± SE) non-diabetic [1, 7]: 172 ± 4 mg glucose/dl | Diabetes (%) [1, 8]: 33% | Final Blood Glucose (mean ± SE) diabetic [1, 8]: 663 ± 57 mg glucose/dl | Final Blood Glucose (mean ± SE) non-diabetic [1, 8]: 145 ± 4 mg glucose/dl | rate of diabetes ([1]; treatment ending after 59-63 days, age 41-44 weeks): 38% | rate of diabetes ([1]; treatment ending after 93-95 days, age 41-44 weeks): 31% | Diabetes (%) [1, 9]: 50% | Final Blood Glucose (mean ± SE) diabetic [1, 9]: 624 ± 33 mg glucose/dl | Final Blood Glucose (mean ± SE) non-diabetic [1, 9]: 200 ± 12 mg glucose/dl | Diabetes (%) [1, 10]: 29% | Final Blood Glucose (mean ± SE) diabetic [1, 10]: 605 ± 59 mg glucose/dl | Final Blood Glucose (mean ± SE) non-diabetic [1, 10]: 166 ± 4 mg glucose/dl | Diabetes (%) ([1]; started post wean, 250 μmol/kg by gavage in water, mice 24-27 weeks old, study ongoing): 25% | mice that had diabetes [3]: 25%

OCCc1ccc(O)c(O)c1 [Hydroxytyrosol, 4-(2-hydroxyethyl)benzene-1,2-diol]
Diabetes (%) [1, 11]: 59% | Final Blood Glucose (mean ± SE) diabetic [1, 11]: 672 ± 24 mg glucose/dl | Final Blood Glucose (mean ± SE) non-diabetic [1, 11]: 173 ± 12 mg glucose/dl

CC(C)=CCC/C(C)=C/CC/C(C)=C/CC/C(C)=C\CC1=C(C)C(=O)c2ccccc2C1=O [Menaquinone-4, 3-methyl-2-[(2Z,6E,10E)-3,7,11,15-tetramethylhexadeca-2,6,10,14-tetraenyl]naphthalene-1,4-dione, reference compound]
Diabetes (%) ([1]; 200 μmol/kg in olive oil, IP til wean (21 days), then gavage until 98 days, mice 24-30 weeks old, study ongoing): 25% | Diabetes (%) ([1]; 30 day treatment, 200 μmol/kg IP in olive oil, mice 20-40 weeks old, study ongoing): 32% | Diabetes (%) ([1]; 60 day treatment, 200 μmol/kg IP in olive oil, mice 34-36 weeks old, study ongoing): 4% | Diabetes (%) [1, 12]: 0% | Final Blood Glucose (mean ± SE) non-diabetic [1, 12]: 172 ± 15 mg glucose/dl | Diabetes (%) [1, 13]: 50% | Final Blood Glucose (mean ± SE) diabetic [1, 13]: 706 ± 25 mg glucose/dl | Final Blood Glucose (mean ± SE) non-diabetic [1, 13]: 164 ± 9 mg glucose/dl

C/C=C(/C=O)[C@@H](CC=O)CC(=O)OCCc1ccc(O)cc1 [Oleocanthal (oil)]
Diabetes (%) [1, 14]: 35% | Final Blood Glucose (mean ± SE) diabetic [1, 14]: 560 ± 61 mg glucose/dl | Final Blood Glucose (mean ± SE) non-diabetic [1, 14]: 178 ± 7 mg glucose/dl

CC1=C(C/C=C(\C)CCC[C@H](C)CCC[C@H](C)CCCC(C)C)C(=O)c2ccccc2C1=O [Phylloquinone, reference compound]
Diabetes (%) ([1]; 110 μmol/kg IP in olive oil): 38% | Final Blood Glucose (mean ± SE) diabetic ([1]; 110 μmol/kg IP in olive oil): 648 ± 37 mg glucose/dl | Final Blood Glucose (mean ± SE) non-diabetic ([1]; 110 μmol/kg IP in olive oil): 174 ± 5 mg glucose/dl | Diabetes (%) [1, 15]: 21% | Final Blood Glucose (mean ± SE) diabetic [1, 15]: 647 ± 27 mg glucose/dl | Final Blood Glucose (mean ± SE) non-diabetic [1, 15]: 163 ± 5 mg glucose/dl | Diabetes (%) [1, 16]: 40% | Final Blood Glucose (mean ± SE) diabetic [1, 16]: 646 ± 40 mg glucose/dl | Final Blood Glucose (mean ± SE) non-diabetic [1, 16]: 167 ± 10 mg glucose/dl | Diabetes (%) [1, 17]: 36% | Final Blood Glucose (mean ± SE) diabetic [1, 17]: 677 ± 20 mg glucose/dl | Final Blood Glucose (mean ± SE) non-diabetic [1, 17]: 156 ± 6 mg glucose/dl

O=c1c(O)c(-c2ccc(O)c(O)c2)oc2cc(O)cc(O)c12 [Quercetin]
Diabetes (%) [1, 18]: 26% | Final Blood Glucose (mean ± SE) diabetic [1, 18]: 610 ± 56 mg glucose/dl | Final Blood Glucose (mean ± SE) non-diabetic [1, 18]: 178 ± 7 mg glucose/dl | Diabetes (%) [1, 19]: 47% | Final Blood Glucose (mean ± SE) diabetic [1, 19]: 651 ± 25 mg glucose/dl | Final Blood Glucose (mean ± SE) non-diabetic [1, 19]: 171 ± 11 mg glucose/dl

CC1=C(C=O)C(C)(C)CC=C1 [Safranal, 2,6,6-Trimethylcyclohexa-1,3-diene-1-carbaldehyde]
Diabetes (%) [1, 20]: 36% | Final Blood Glucose (mean ± SE) diabetic [1, 20]: 595 ± 36 mg glucose/dl | Final Blood Glucose (mean ± SE) non-diabetic [1, 20]: 172 ± 8 mg glucose/dl | Diabetes (%) [1, 21]: 32% | Final Blood Glucose (mean ± SE) diabetic [1, 21]: 606 ± 60 mg glucose/dl | Final Blood Glucose (mean ± SE) non-diabetic [1, 21]: 159 ± 5 mg glucose/dl

C[S+]([O-])CCCCN=C=S (stereo not shown) [Sulforaphane, 1-Isothiocyanato-4-(methanesulfinyl)butane]
Diabetes (%) [1, 22]: 42% | Final Blood Glucose (mean ± SE) diabetic [1, 22]: 619 ± 37 mg glucose/dl | Final Blood Glucose (mean ± SE) non-diabetic [1, 22]: 154 ± 7 mg glucose/dl

CC(S)C(=O)NCC(=O)O (stereo not shown) [Tiopronin, reference compound]
Diabetes (%) [1, 23]: 74% | Final Blood Glucose (mean ± SE) diabetic [1, 23]: 685 ± 19 mg glucose/dl | Final Blood Glucose (mean ± SE) non-diabetic [1, 23]: 175 ± 12 mg glucose/dl

SHLVEALYLVCGEEG (SHLVEALYLVC(Cam)GEEG) [Ins B9-23 19CAM22R-E, insulin B chain 9-23 mimotope peptide treated with iodoacetamide to carboxyamidomethylate the cysteine residue at position 19]
Diabetes (%) [1, 24]: 17% | Final Blood Glucose (mean ± SE) diabetic [1, 24]: 681 ± 82 mg glucose/dl | Final Blood Glucose (mean ± SE) non-diabetic [1, 24]: 159 ± 6 mg glucose/dl

VEALYLVCEGEEG (VEALYLVC(Cam)EGEEG) [Ins B12-23 19CAM22R-E, insulin B12-23 mimotope peptide treated with iodoacetamide to carboxyamidomethylate the cysteine residue]
Diabetes (%) [1, 25]: 54% | Final Blood Glucose (mean ± SE) diabetic [1, 25]: 569 ± 70 mg glucose/dl | Final Blood Glucose (mean ± SE) non-diabetic [1, 25]: 166 ± 7 mg glucose/dl

VEALYLVCGERG (VEALYLVC(Cam)GERG) [Ins B12-23 19CAM]
Diabetes (%) [1, 26]: 47% | Final Blood Glucose (mean ± SE) diabetic [1, 26]: 679 ± 32 mg glucose/dl | Final Blood Glucose (mean ± SE) non-diabetic [1, 26]: 160 ± 6 mg glucose/dl
